Experimental data published in ChEMBL document CHEMBL3351363 (J Med Chem, 2014).
pEC50, pIC50, pKi: −log10 of the molar value.

Key:
[1] = biological target: T1, Muscarinic acetylcholine receptor M1 (Homo sapiens, UniProt P11229); assay: Agonist activity at human M1 receptor expressed in HEK293T cells by BRET based Gq protein engagement assay
T1 sequence (P11229 whole entry): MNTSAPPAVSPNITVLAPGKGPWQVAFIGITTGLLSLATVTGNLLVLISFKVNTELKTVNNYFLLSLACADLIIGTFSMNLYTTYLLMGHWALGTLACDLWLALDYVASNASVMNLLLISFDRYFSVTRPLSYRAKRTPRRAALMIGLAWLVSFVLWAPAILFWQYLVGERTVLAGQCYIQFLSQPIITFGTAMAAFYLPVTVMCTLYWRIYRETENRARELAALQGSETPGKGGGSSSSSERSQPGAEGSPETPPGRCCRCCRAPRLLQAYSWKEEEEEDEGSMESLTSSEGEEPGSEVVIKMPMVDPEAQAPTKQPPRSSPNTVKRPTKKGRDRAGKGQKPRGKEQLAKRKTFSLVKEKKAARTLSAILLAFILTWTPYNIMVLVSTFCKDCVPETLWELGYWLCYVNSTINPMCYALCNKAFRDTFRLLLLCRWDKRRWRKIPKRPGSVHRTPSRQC

[2] = biological target: T2, Muscarinic acetylcholine receptor M4 (Homo sapiens, UniProt P08173); assay: Antagonist activity at human M4 receptor expressed in HEK293T cells assessed as inhibition of xanomeline-induced response by BRET based Gq protein engagement assay; type: cell-based, HEK-293T
T2 sequence (P08173 whole entry): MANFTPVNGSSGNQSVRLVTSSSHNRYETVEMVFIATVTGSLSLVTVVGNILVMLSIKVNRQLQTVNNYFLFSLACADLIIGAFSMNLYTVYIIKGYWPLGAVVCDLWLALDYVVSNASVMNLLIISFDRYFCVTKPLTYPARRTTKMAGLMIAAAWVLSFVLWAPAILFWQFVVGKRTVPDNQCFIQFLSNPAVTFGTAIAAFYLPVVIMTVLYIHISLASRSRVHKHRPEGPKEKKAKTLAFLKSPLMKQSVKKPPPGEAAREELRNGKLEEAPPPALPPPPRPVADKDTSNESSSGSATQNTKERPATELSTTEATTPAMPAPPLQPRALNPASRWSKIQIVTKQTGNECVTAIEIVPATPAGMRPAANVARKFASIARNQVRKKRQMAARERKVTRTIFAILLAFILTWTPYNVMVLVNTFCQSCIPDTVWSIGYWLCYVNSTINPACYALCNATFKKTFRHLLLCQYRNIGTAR

[3] = biological target: T1, Muscarinic acetylcholine receptor M1
[4] = biological target: T3, Muscarinic acetylcholine receptor M4 (Homo sapiens) (UniProt P08173); assay: Antagonist activity at human M4 receptor expressed in HEK293T cells assessed as inhibition of carbachol-induced response by beta-arrestin engagement assay relative to untreated control; type: cell-based; conditions: HEK-293T
T3 sequence (whole entry): T2 sequence (P08173 whole entry)

[5] = biological target: Muscarinic acetylcholine receptor M3 (Homo sapiens, UniProt P20309); assay: Displacement of [3H]NMS from human M3 receptor expressed in CHO cells by microplate scintillation counting based radioligand binding assay; type: cell-based
[6] = biological target: T4, Muscarinic acetylcholine receptor M1 (Homo sapiens) (UniProt P11229); assay: Positive modulatory activity at human M1 receptor expressed in HEK293T cells assessed as effect on carbachol-induced response by BRET based Gq protein activation assay relative to untreated control; type: cell-based; conditions: HEK-293T
T4 sequence (whole entry): T1 sequence (P11229 whole entry)

[7] = biological target: T1, Muscarinic acetylcholine receptor M1; assay: Positive modulatory activity at human M1 receptor expressed in HEK293T cells assessed as effect on carbachol-induced response by BRET based Gq protein engagement assay; type: cell-based, HEK-293T
[8] = biological target: T3, Muscarinic acetylcholine receptor M4 (Homo sapiens); assay: Antagonist activity at human M4 receptor expressed in HEK293T cells assessed as inhibition of xanomeline-induced response by beta-arrestin engagement assay relative to untreated control; type: cell-based; conditions: HEK-293T
[9] = biological target: T1, Muscarinic acetylcholine receptor M1; assay: Agonist activity at human M1 receptor expressed in HEK293T cells by BRET based Gq protein activation assay; type: cell-based, HEK-293T
[10] = biological target: T1, Muscarinic acetylcholine receptor M1; assay: Agonist activity at human M1 receptor expressed in HEK293T cells by BRET based beta-arrestin engagement assay
[11] = biological target: T3, Muscarinic acetylcholine receptor M4 (Homo sapiens); assay: Agonist activity at human M4 receptor expressed in HEK293T cells by BRET based Gi protein activation assay relative to carbachol; conditions: HEK-293T
[12] = biological target: T4, Muscarinic acetylcholine receptor M1 (Homo sapiens); assay: Agonist activity at human M1 receptor expressed in HEK293T cells by BRET based beta-arrestin engagement assay relative to carbachol; type: cell-based; conditions: HEK-293T
[13] = biological target: T5, Muscarinic acetylcholine receptor M2 (Homo sapiens, UniProt P08172); assay: Displacement of [3H]NMS from human M2 receptor expressed in CHO cells by microplate scintillation counting based radioligand binding assay; type: cell-based
T5 sequence (P08172 whole entry): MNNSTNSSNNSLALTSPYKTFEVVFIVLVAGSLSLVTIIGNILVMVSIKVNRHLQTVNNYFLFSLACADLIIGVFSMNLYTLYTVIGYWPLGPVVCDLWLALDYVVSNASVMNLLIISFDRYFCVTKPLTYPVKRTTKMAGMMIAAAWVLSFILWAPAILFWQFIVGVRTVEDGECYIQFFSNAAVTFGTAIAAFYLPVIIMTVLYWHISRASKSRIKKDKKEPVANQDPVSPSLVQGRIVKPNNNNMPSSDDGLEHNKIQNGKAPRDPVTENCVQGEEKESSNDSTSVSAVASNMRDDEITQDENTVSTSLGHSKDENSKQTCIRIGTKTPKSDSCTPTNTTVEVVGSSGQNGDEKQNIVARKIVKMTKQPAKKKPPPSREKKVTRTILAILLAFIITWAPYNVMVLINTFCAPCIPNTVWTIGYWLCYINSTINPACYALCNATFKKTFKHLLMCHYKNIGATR

[14] = biological target: T2, Muscarinic acetylcholine receptor M4; assay: Antagonist activity at human M4 receptor expressed in HEK293T cells assessed as inhibition of carbachol-induced response by BRET based Gq protein engagement assay; type: cell-based, HEK-293T
[15] = biological target: T1, Muscarinic acetylcholine receptor M1; assay: Displacement of [3H]NMS from human M1 receptor expressed in CHO cells by microplate scintillation counting based radioligand binding assay; type: cell-based
[16] = biological target: T3, Muscarinic acetylcholine receptor M4 (Homo sapiens); assay: Antagonist activity at human M4 receptor expressed in HEK293T cells assessed as inhibition of xanomeline-induced response by BRET based Gq protein engagement assay relative to untreated control; type: cell-based; conditions: HEK-293T

Sequence of Muscarinic acetylcholine receptor M3 (P20309 whole entry): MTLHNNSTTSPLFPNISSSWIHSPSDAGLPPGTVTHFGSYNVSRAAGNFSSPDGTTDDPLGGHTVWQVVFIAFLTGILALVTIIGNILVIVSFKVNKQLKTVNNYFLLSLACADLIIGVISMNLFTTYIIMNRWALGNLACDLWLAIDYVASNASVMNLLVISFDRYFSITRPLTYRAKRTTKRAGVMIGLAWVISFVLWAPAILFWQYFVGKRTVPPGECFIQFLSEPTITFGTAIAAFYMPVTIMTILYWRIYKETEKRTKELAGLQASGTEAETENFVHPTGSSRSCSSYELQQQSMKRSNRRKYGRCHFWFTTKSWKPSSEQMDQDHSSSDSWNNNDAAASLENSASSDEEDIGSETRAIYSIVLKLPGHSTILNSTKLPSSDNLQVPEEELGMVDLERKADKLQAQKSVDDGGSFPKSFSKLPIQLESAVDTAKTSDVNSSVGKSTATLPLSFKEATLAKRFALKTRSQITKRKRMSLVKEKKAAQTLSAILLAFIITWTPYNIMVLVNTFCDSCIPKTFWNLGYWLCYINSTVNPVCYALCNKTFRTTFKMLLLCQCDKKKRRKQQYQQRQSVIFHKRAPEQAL

CCCCC1CCN(CCCN2C(=O)CCc3ccccc32)CC1
pEC50 [1]: 7.22
pIC50 [2]: 3.92
pEC50 [3]: 6.58
Imax [4]: 16%
pKi [5]: 5.92
Emax [6]: 79%
pEC50 [7]: 7.46
Imax [8]: 19%
pEC50 [9]: 6.99
pEC50 [10]: 6.08
Emax [11]: 46%
Emax [12]: 32%
pKi [13]: 6.69
pIC50 [14]: 5.65
pKi [15]: 6.50
Imax [16]: 78%
